# According to paper PMC9599520, “The Membrane Activity of the Amphibian Temporin B Peptide Analog TB_KKG6K Sheds Light on the Mechanism That Kills Candida albicans” (mSphere, 2022):
# Counter-ions that a name gives are not always drawn. Like-named read-outs stand apart in the source and are kept apart here. Where no end group is shown, it is not given here.
# What was measured:
# [1] = tested on: C. albicans (CBS 5982); assay: microbe, parasite or virus in culture; type: cell-based, Candida albicans; details: for IC90: Candida albicans, CBS5982, 24 h, 0.05× PDB, 30°C, 24 h, OD620, read-out: IC90 (inhibitory concentration that reduced growth by ≥90%)
# [2] = tested on: C. albicans cells; assay: Uptake mechanism (fluorescence microscopy, 4°C or CCCP); type: cell-based, Candida albicans; details: 2 μM
# [3] = Vesicle leakage assay, PC-PE; type: biochemical; details: PC-PE-LUVs; 32 μM peptide (1.5:1), negative control; 50 μM lipid, 30 min, 37°C; mean ± SD
# [4] = Vesicle leakage assay (ANTS-DPX), all LUVs; type: biochemical; details: 32 μM peptide, negative control, 1% Triton X-100 = 100%
# [5] = Vesicle leakage assay, PC-ceramide; type: biochemical; details: PC-ceramide-LUVs; 32 μM peptide (1.5:1), negative control; 50 μM lipid, 30 min, 37°C; mean ± SD
# [6] = Vesicle leakage assay, PC-PS-ergosterol; type: biochemical; details: PC-PS-ergosterol-LUVs; 32 μM peptide (1.5:1), negative control; 50 μM lipid, 30 min, 37°C; mean ± SD
# [7] = Vesicle leakage assay, PC-ergosterol; type: biochemical; details: PC-ergosterol-LUVs; 32 μM peptide (1.5:1), negative control; 50 μM lipid, 30 min, 37°C; mean ± SD
# [8] = Vesicle leakage assay, PC-PI; type: biochemical; details: PC-PI-LUVs; 32 μM peptide (1.5:1), negative control; 50 μM lipid, 30 min, 37°C; mean ± SD
# [9] = Vesicle leakage assay, PC-sphingomyelin; type: biochemical; details: PC-sphingomyelin-LUVs; 32 μM peptide (1.5:1), negative control; 50 μM lipid, 30 min, 37°C; mean ± SD
# [10] = Vesicle leakage assay, PG-PE-CL; type: biochemical; details: PG-PE-CL-LUVs; 32 μM peptide (1.5:1), negative control; 50 μM lipid, 30 min, 37°C; mean ± SD
# [11] = Vesicle leakage assay, PC-PS; type: biochemical; details: PC-PS-LUVs; 32 μM peptide (1.5:1), negative control; 50 μM lipid, 30 min, 37°C; mean ± SD
# [12] = Vesicle leakage assay, PC; type: biochemical; details: PC-LUVs; 32 μM peptide (1.5:1), negative control; 50 μM lipid, 30 min, 37°C; mean ± SD
# [13] = Vesicle leakage assay, PC-PE-ergosterol; type: biochemical; details: PC-PE-ergosterol-LUVs; 32 μM peptide (1.5:1), negative control; 50 μM lipid, 30 min, 37°C; mean ± SD
# [14] = tested on: C. albicans cell membrane; assay: Membrane depolarization assay with DiSC3(5) dye; type: cell-based, Candida albicans; details: 1 × 10^6 cells/mL, 30°C, 60 min, PCγ^C-terminal 32 μM
# [15] = Vesicle leakage assay, PG; type: biochemical; details: PG-LUVs; 32 μM peptide (1.5:1), negative control; 50 μM lipid, 30 min, 37°C; mean ± SD
# [16] = Vesicle leakage assay, PC-CL; type: biochemical; details: PC-CL-LUVs; 32 μM peptide (1.5:1), negative control; 50 μM lipid, 30 min, 37°C; mean ± SD
# [17] = cited from earlier work
molecule,measurement,setting,value
"CCCCCCCCN=c1ccn(CCCCCCCCCCn2ccc(=NCCCCCCCC)cc2)cc1 [Octenidine, N,N′-(1,10 decanediyldi-1[4H]-pyridinyl-4-ylidene)-bis-(1-octanamine) dihydrochloride]",IC90,[1]; 1 × 10^4 cells/mL,1000 nM
same,IC90,[1]; 1 × 10^6 cells/mL,2000 nM
"BODIPY-PAFB: P. chrysogenum antifungal protein B (PAFB) conjugated with the green fluorophore BODIPY; control for energy-dependent uptake (LSKFGGECSLKHNTCTYLKGGKNHVVNCGSAANKKCKSDRHHCEYDEHHKRVDCQTPV; cysteine pairing not given here; also: BODIPY label, position not given here; UniProt D0EXD3 35-92, looked up)",uptake into C. albicans cells,"[2]; 30°C, standard condition, 45 min for BODIPY-PAFB",taken up by C. albicans
same,uptake into C. albicans cells with reduced respiration and metabolism,"[2]; 4°C, or 30°C with 100 μM CCCP, 15 min (FITC-TB_KKG6K), 45 min (BODIPY-PAFB)",no internalization
"CGGASCRG [PCγ^C-terminal, negative control peptide CGGASCRG derived from the C-terminal part of Penicillium chrysogenum antifungal protein C (PAFC), reference compound]",% Leakage,[3],1.4 ± 0.6%
same,% Leakage,[4],≤ 2%
same,% Leakage,[5],1.3 ± 0.2%
same,% Leakage,[6],2.0 ± 1.4%
same,% Leakage,[7],1.1 ± 0.9%
same,% Leakage,[8],0.4 ± 0.5%
same,% Leakage,[9],0.6 ± 0.8%
same,% Leakage,[10],−1.2 ± 1.6%
same,% Leakage,[11],0.9 ± 2.7%
same,% Leakage,[12],1.4 ± 1.4%
same,% Leakage,[13],1.7 ± 2.0%
same,"membrane depolarization, DiSC3(5) fluorescence intensity","[14]; TB analog 0.5, 1, 2 μM, Triton X-100 1% (wt/vol)",No membrane depolarization
same,% Leakage,[15],1.9 ± 1%
same,% Leakage,[16],0.7 ± 0.4%
same,fungal growth inhibition,[1]; peptide concentration 0 to 32 μM,No fungal growth inhibition
Temporin B [reference compound],hydrophobicity (hydrophobic amino acids),[17],61%
same,positive net charge,[17]; pH 7,+0.9
Triton X-100 [reference compound],"membrane depolarization, DiSC3(5) fluorescence intensity",[14]; […],fast and sustained increase in fluorescence intensity
